Consider 17 compounds from ChEMBL document CHEMBL5291721, “A preclinical secondary pharmacology resource illuminates target-adverse drug reaction associations of marketed drugs” (Nat Commun, 2023).

The AC50 is the midpoint of the concentration-response curve, whichever way the signal moves.

Structures are written as SMILES.

Targets include Melanocortin receptor 4 (Homo sapiens, UniProt P32245); Histamine H1 receptor (Homo sapiens, UniProt P35367); D(1A) dopamine receptor (Homo sapiens, UniProt P21728).
The next test concerns the target T1, B2 bradykinin receptor (Homo sapiens, UniProt P30411).
T1 sequence (P30411 whole entry): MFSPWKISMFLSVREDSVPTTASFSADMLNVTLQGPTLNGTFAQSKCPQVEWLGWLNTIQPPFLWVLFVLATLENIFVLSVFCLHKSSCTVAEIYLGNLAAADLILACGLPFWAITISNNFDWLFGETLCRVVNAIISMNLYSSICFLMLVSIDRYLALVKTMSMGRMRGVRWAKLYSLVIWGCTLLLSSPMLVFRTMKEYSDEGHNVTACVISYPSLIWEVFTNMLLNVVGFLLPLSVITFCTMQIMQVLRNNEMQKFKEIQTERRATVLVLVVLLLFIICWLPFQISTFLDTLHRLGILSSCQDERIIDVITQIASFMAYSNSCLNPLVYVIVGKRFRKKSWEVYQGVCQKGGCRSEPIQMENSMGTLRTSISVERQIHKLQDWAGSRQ

The target in test [1] is Gamma-aminobutyric acid receptor subunit alpha-1 (Rattus norvegicus, UniProt P62813).
Test [2] addresses T2, Alpha-1A adrenergic receptor (Homo sapiens, UniProt P35348).
T2 sequence (P35348 whole entry): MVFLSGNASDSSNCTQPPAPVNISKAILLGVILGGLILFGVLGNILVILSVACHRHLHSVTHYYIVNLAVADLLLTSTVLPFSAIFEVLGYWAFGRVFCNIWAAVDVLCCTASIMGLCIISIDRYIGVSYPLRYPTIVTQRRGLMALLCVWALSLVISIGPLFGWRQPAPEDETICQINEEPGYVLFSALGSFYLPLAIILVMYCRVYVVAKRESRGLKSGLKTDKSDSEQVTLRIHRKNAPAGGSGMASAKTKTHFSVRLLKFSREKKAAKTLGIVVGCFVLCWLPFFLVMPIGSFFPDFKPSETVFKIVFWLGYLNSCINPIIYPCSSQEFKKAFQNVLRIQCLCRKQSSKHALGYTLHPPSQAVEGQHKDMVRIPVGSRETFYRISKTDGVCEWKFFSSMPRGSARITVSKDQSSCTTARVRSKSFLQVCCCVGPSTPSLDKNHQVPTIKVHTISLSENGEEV

Test [3] deals with Beta-1 adrenergic receptor (Homo sapiens, UniProt P08588). It is filed as functional.
The next test addresses Histamine H2 receptor (Homo sapiens, UniProt P25021). Format: functional, cell-based.
In test [4] the target is T3, 5-hydroxytryptamine receptor 1A (Homo sapiens, UniProt P08908).
T3 sequence (P08908 whole entry): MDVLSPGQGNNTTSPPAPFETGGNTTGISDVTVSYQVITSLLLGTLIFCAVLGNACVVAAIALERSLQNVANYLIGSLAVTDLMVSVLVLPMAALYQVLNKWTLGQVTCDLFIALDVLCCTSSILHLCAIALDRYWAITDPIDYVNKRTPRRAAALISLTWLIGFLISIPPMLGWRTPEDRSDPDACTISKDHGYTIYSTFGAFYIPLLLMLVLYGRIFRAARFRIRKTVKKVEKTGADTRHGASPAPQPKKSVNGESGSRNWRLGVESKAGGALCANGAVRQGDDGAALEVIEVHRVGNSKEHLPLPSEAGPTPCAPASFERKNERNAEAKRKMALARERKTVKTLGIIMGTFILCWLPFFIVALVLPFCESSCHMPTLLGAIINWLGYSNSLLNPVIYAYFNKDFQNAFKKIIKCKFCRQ
Format: functional, cell-based.

Test [5] concerns the target T4, Cannabinoid receptor 1 (Homo sapiens, UniProt P21554). It is filed as functional, cell-based.
For test [6], the target named is T4, Cannabinoid receptor 1. Format: functional, cell-based. This is another data set of the same source.
Test [7] concerns the target T3, 5-hydroxytryptamine receptor 1A.
The target in test [8] is 3',5'-cyclic-AMP phosphodiesterase 4A (Homo sapiens, UniProt P27815). It is filed as functional.
For test [9], the target named is Sodium-dependent serotonin transporter (Homo sapiens, UniProt P31645).
Test [10] addresses Prostaglandin G/H synthase 1 (Homo sapiens, UniProt P23219). Format: functional.
In a further test the target is Acetylcholinesterase (Homo sapiens, UniProt P22303). Format: functional.
The target of test [11] is 5-hydroxytryptamine receptor 2A (Homo sapiens, UniProt P28223). Format: functional, cell-based.
For test [12], the target named is T2, Alpha-1A adrenergic receptor. Format: functional, cell-based.
Note: assay procedure not described here.

Sequence of Beta-1 adrenergic receptor (P08588 whole entry): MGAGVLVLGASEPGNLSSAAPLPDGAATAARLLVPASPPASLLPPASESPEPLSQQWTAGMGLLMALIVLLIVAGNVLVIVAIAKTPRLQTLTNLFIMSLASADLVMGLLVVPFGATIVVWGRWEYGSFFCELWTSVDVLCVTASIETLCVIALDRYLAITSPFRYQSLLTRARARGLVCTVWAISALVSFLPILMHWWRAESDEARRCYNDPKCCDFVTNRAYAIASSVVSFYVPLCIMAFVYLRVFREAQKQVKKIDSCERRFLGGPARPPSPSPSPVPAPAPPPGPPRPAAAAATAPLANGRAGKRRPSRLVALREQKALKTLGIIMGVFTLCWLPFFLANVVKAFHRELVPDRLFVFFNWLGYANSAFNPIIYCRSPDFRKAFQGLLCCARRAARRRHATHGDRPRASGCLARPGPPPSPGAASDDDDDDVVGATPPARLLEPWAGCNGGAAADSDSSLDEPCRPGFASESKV
T4 sequence (P21554 whole entry): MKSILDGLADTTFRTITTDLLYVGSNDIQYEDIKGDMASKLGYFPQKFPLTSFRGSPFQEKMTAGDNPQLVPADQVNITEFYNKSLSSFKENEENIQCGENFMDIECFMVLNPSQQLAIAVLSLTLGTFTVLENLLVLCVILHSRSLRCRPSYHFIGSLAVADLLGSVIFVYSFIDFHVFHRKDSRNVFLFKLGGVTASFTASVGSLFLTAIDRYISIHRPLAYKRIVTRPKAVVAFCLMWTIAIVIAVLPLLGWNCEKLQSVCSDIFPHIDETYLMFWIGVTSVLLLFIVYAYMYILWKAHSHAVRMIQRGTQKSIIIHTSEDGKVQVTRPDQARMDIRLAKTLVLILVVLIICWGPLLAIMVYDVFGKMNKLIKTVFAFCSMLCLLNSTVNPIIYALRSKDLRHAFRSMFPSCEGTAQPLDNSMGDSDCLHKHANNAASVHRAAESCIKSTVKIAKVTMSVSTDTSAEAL
Sequence of Sodium-dependent serotonin transporter (P31645 whole entry): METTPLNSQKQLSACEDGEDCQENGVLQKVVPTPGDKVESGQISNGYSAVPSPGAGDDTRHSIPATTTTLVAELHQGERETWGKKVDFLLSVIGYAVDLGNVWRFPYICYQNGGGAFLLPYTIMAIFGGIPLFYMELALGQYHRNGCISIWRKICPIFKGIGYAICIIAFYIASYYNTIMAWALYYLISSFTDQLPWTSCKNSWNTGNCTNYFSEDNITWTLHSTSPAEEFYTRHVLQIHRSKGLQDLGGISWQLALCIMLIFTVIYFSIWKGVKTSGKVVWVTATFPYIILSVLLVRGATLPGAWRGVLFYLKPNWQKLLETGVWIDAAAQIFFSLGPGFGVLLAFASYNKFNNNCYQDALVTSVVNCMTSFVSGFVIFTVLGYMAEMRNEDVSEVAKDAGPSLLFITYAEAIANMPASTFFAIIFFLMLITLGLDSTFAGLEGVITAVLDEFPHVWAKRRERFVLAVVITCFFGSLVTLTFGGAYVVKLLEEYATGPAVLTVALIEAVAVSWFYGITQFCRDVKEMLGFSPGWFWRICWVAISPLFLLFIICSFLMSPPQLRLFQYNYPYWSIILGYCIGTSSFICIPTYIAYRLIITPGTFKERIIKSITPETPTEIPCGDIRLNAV
Sequence of Histamine H1 receptor (P35367 whole entry): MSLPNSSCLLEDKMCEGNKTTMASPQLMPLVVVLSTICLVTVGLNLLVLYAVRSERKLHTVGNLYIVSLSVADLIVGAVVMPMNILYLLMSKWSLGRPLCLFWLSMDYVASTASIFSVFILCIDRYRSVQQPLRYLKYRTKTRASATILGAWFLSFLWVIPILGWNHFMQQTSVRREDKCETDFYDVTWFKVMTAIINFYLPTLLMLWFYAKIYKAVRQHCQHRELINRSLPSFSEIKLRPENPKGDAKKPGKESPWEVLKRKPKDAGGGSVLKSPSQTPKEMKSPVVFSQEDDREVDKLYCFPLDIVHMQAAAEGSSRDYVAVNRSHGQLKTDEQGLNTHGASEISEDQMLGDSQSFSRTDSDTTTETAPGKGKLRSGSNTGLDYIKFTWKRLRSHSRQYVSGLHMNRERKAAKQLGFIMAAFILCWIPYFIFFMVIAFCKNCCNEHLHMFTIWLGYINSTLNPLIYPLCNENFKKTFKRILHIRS
Sequence of Histamine H2 receptor (P25021 whole entry): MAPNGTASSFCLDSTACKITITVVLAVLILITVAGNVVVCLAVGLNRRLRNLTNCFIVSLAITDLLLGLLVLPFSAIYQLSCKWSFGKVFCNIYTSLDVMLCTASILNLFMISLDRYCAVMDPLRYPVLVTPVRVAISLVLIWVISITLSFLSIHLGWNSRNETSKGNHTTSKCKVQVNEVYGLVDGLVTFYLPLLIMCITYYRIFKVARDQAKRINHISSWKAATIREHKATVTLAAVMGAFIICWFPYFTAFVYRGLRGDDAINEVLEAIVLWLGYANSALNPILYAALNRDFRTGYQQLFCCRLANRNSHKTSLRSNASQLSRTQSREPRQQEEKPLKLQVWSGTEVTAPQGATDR
Sequence of Gamma-aminobutyric acid receptor subunit alpha-1 (P62813 whole entry): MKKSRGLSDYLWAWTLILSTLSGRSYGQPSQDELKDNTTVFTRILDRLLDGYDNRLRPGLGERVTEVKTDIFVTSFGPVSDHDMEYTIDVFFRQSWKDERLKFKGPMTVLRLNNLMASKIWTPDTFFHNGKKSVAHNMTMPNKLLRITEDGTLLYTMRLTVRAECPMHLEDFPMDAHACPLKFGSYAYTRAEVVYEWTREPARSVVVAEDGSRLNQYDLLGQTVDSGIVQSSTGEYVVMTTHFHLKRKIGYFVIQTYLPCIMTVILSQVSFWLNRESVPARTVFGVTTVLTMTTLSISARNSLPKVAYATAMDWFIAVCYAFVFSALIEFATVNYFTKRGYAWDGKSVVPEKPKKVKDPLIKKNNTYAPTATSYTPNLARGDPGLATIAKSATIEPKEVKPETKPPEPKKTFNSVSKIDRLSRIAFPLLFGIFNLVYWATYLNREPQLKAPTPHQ
Sequence of Melanocortin receptor 4 (P32245 whole entry): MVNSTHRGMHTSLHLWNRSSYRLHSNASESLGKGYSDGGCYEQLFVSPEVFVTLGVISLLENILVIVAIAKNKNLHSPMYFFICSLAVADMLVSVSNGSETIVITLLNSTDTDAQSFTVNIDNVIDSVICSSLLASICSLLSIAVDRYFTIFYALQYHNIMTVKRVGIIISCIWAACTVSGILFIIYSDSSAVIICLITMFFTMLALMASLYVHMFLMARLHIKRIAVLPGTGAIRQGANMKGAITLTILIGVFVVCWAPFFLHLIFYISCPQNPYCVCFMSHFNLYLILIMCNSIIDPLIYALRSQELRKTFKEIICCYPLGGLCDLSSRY
Sequence of Acetylcholinesterase (P22303 whole entry): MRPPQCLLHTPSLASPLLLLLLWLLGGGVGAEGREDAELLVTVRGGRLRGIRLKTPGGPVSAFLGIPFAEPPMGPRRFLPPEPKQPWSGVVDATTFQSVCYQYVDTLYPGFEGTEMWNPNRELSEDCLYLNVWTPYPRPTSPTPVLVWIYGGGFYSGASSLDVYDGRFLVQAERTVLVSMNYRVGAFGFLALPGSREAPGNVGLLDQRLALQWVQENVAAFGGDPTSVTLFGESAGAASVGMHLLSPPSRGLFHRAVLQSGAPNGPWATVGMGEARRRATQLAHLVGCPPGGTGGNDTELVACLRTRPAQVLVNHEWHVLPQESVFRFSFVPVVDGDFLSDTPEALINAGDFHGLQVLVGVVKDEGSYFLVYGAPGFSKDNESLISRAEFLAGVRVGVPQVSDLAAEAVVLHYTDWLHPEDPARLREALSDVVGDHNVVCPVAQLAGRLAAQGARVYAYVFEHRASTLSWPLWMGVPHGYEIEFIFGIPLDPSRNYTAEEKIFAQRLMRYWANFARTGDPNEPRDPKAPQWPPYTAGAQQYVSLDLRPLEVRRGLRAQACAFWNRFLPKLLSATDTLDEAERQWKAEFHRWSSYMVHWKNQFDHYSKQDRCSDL
Sequence of 5-hydroxytryptamine receptor 2A (P28223 whole entry): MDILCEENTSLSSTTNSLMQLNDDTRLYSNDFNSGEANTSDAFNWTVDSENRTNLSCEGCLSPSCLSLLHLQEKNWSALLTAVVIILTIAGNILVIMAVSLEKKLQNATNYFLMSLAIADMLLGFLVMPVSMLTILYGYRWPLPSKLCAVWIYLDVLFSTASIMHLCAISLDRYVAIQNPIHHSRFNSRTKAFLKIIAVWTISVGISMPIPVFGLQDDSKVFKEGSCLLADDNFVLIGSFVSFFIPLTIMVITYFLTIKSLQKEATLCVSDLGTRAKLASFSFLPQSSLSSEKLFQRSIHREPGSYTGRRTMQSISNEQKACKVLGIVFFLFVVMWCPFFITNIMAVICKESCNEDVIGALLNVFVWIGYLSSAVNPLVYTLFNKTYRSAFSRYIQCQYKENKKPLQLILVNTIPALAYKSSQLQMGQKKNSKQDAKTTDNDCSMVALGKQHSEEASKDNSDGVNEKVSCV
Sequence of D(1A) dopamine receptor (P21728 whole entry): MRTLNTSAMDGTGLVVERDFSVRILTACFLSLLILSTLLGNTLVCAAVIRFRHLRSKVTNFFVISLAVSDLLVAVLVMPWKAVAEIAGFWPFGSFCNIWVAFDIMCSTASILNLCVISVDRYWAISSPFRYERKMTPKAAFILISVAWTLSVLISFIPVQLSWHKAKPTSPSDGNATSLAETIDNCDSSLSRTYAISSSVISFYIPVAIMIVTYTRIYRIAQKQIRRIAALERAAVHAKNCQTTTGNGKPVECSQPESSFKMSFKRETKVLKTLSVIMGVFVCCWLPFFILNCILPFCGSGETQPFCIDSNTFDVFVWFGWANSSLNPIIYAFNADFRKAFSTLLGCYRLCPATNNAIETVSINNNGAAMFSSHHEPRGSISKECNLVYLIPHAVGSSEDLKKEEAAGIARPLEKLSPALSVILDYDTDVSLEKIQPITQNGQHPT

As to `NC[C@H]1CC[C@H](C(=O)O)CC1` [TRANEXAMIC ACID], the AC50 at B2 bradykinin receptor is over 10 µM; at Melanocortin receptor 4, over 10 µM; in test [1], over 10 µM; in [2], over 30 µM; in [3] it was over 10 µM; at Histamine H2 receptor, over 30 µM. The compound also gave a concentration at half-maximal activity (AC50) in test [4] of over 10 µM.
As to `CCc1nn(CCCN2CCN(c3cccc(Cl)c3)CC2)c(=O)n1CCOc1ccccc1` [NEFAZODONE], the half-maximal activity concentration (AC50) on B2 bradykinin receptor was over 30 µM; at Melanocortin receptor 4, over 30 µM; at Cannabinoid receptor 1 [5], over 30 µM; in test [1], over 10 µM; in test [2], 0.833 µM; in [3], over 10 µM. Besides, the figures for the AC50 on Histamine H1 receptor and at Cannabinoid receptor 1 [6] were 0.41 µM and over 30 µM, respectively.
As to `NC(N)=Nc1nc(CSCCC(N)=NS(N)(=O)=O)cs1` [FAMOTIDINE], the AC50 on B2 bradykinin receptor is over 30 µM; on Melanocortin receptor 4 it was over 30 µM; at Cannabinoid receptor 1 [5], over 30 µM; in test [1], over 10 µM; in test [2] it was over 10 µM; in [3], over 10 µM. The AC50 is over 10 µM on Histamine H2 receptor, over 30 µM on Cannabinoid receptor 1 [6] and over 10 µM in [4].
`NC[C@H]1O[C@H](O[C@H]2[C@H](O)[C@@H](O[C@H]3O[C@H](CO)[C@@H](O)[C@H](N)[C@H]3O)[C@H](N)C[C@@H]2N)[C@H](O)[C@@H](O)[C@@H]1O` [KANAMYCIN]: the AC50 is over 10 µM at B2 bradykinin receptor; over 10 µM at Melanocortin receptor 4; over 10 µM in [1]; over 30 µM in test [2]; over 30 µM on Histamine H2 receptor; over 10 µM in test [4].
For the compound `NS(=O)(=O)c1cc2c(cc1Cl)NCNS2(=O)=O` [HYDROCHLOROTHIAZIDE], the concentration at half-maximal activity (AC50) on B2 bradykinin receptor was over 30 µM; at Melanocortin receptor 4 it was over 30 µM; in test [1], over 10 µM; in test [2], over 10 µM; in test [3] it was over 10 µM; on Histamine H2 receptor it was over 10 µM. In [4], this compound displayed an AC50 of over 10 µM.
As to `CC(C)(C(=O)c1cccnc1)c1cccnc1` [METYRAPONE], the AC50 (on B2 bradykinin receptor; at Melanocortin receptor 4; in test [1]; in test [2]; in [3]; on Histamine H2 receptor) was over 10 µM each time. In test [4], the half-maximal activity concentration (AC50) is over 10 µM.
Consider `CCOC(=O)[C@H](CCc1ccccc1)N[C@@H](C)C(=O)N1CCC[C@H]1C(=O)O`, for which the AC50 is over 30 µM on B2 bradykinin receptor; over 30 µM on Melanocortin receptor 4; over 30 µM on Cannabinoid receptor 1 [5]; over 10 µM in test [1]; over 10 µM in test [2]; over 10 µM in test [3]. Further, the AC50 is over 10 µM at Histamine H2 receptor, over 30 µM on Cannabinoid receptor 1 [6] and over 10 µM in [4].
For `CCC[C@@H]1C[C@@H](C(=O)N[C@@H]([C@H]2O[C@H](SC)[C@H](O)[C@@H](O)[C@H]2O)[C@H](C)Cl)N(C)C1` [CLINDAMYCIN], the AC50 at B2 bradykinin receptor is over 30 µM; on Melanocortin receptor 4, over 30 µM; on Cannabinoid receptor 1 [5] it was over 30 µM; in test [1] it was over 10 µM; in [2], 3.42 µM; in test [3] it was over 10 µM. For the same compound, the figures for the AC50 (at Histamine H2 receptor; at Cannabinoid receptor 1 [6]; in test [4]) were over 10 µM, over 30 µM and over 10 µM, respectively.
With `NC1=NC(=O)C(c2ccccc2)O1` (stereo not drawn) [PEMOLINE], the half-maximal activity concentration (AC50) was over 30 µM on B2 bradykinin receptor; over 30 µM at Melanocortin receptor 4; over 10 µM in test [1]; over 10 µM in test [2]; over 10 µM in [3]; over 10 µM at Histamine H2 receptor. The compound further gave a concentration at half-maximal activity (AC50) in [4] of over 10 µM.
Turning to `COc1cc(Nc2c(C#N)cnc3cc(OCCCN4CCN(C)CC4)c(OC)cc23)c(Cl)cc1Cl` [BOSUTINIB], the half-maximal activity concentration (AC50) is over 30 µM on B2 bradykinin receptor; 14.2 µM in test [7]; 17.7 µM at Melanocortin receptor 4; over 30 µM in test [8]; over 10 µM in test [3]; over 10 µM at Histamine H1 receptor. Besides, the AC50 in test [9] was 11 µM; on D(1A) dopamine receptor it was 4.64 µM; in test [10], over 30 µM; at Acetylcholinesterase, 15.6 µM.
For `CO/N=C(\C(=O)N[C@@H]1C(=O)N2C(C(=O)[O-])=C(C[N+]3(C)CCCC3)CS[C@H]12)c1csc(N)n1`, the half-maximal activity concentration (AC50) on B2 bradykinin receptor was over 30 µM; on Cannabinoid receptor 1 [5] it was over 300 µM; in [1] it was over 30 µM; in test [2] it was over 30 µM; in test [3] it was over 300 µM; on Histamine H1 receptor it was over 300 µM. In addition, the half-maximal activity concentration (AC50) on Histamine H2 receptor is over 30 µM; at Cannabinoid receptor 1 [6] it was over 300 µM; in test [9], over 300 µM; in test [11] it was over 30 µM; in [4], over 300 µM.
For `O=C(O)c1cc(-c2ccc(F)cc2F)ccc1O` [DIFLUNISAL], the AC50 on B2 bradykinin receptor is over 10 µM; at Melanocortin receptor 4, over 10 µM; in test [1], over 10 µM; in test [2], over 30 µM; in [3], over 10 µM; on Histamine H2 receptor it was over 30 µM. Moreover, in [4], the AC50 was over 10 µM.
`CN(C)CCCN1c2ccccc2CCc2ccc(Cl)cc21` [CLOMIPRAMINE]: the half-maximal activity concentration (AC50) in [7] is 5.33 µM; in test [12], over 30 µM; in test [1], over 10 µM; in test [2], 0.0445 µM; on Histamine H2 receptor, over 30 µM; at Acetylcholinesterase it was over 30 µM.
Take `C[C@H]1C[C@@H]2[C@H]([C@@H](O)C[C@@]3(C)[C@H]2CC[C@]3(O)C(=O)CO)[C@@]2(C)C=CC(=O)C=C12` [METHYLPREDNISOLONE]: the AC50 is over 10 µM on B2 bradykinin receptor; over 10 µM at Melanocortin receptor 4; over 10 µM in test [1]; over 30 µM in test [2]; over 10 µM in test [3]; over 30 µM at Histamine H2 receptor. For the same compound, the AC50 in test [4] is over 10 µM.
In the case of `CC(N)Cc1ccccc1` (stereo not drawn) [AMPHETAMINE], the AC50 at B2 bradykinin receptor was over 30 µM; on Melanocortin receptor 4, over 30 µM; on Cannabinoid receptor 1 [5], over 30 µM; in test [1], over 10 µM; in test [2], over 10 µM; in [3] it was over 30 µM. The AC50 at Histamine H2 receptor was over 10 µM; on Cannabinoid receptor 1 [6], over 30 µM; in [11], over 30 µM; in test [4] it was over 30 µM.
`CCN(CC)CCNC(=O)c1cc(Cl)c(N)cc1OC` [METOCLOPRAMIDE]: the AC50 at B2 bradykinin receptor is over 30 µM; at Melanocortin receptor 4, over 30 µM; at Cannabinoid receptor 1 [5] it was over 30 µM; in test [1] it was over 10 µM; in [2] it was over 10 µM; in test [3] it was over 10 µM. The results for the AC50 (at Histamine H2 receptor; on Cannabinoid receptor 1 [6]; in test [4]) were over 10 µM, over 30 µM and over 10 µM, respectively.
Turning to `COC(=O)C1=C(C)NC(C)=C(C(=O)OCC(C)C)C1c1ccccc1[N+](=O)[O-]` (stereo not drawn) [NISOLDIPINE], the half-maximal activity concentration (AC50) at B2 bradykinin receptor was over 10 µM; on Melanocortin receptor 4, over 10 µM; on Cannabinoid receptor 1 [5], over 30 µM; in test [1] it was over 10 µM; in test [2] it was 16 µM; in test [3] it was over 10 µM. The AC50 at Histamine H2 receptor is over 30 µM; on Cannabinoid receptor 1 [6], 12 µM; in [4], over 10 µM.
